From patent US10183949B2, “Pyrimidinone derivative having autotaxin-inhibitory activity” (The University of Tokyo, priority 2014, dated 2019)

The molecules below were run against T1, Human autotaxin enzyme (Homo sapiens, UniProt Q13822) (assay: Evaluation of autotaxin inhibitor, 18:0 Lyso PC / choline assay (Test Example 2)). Details: autotaxin inhibition, IC50 class; read-out: Inhibitor activity.
T1 construct: purchased R&D System
Type: biochemical
Procedure, shortened: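 Human autotaxin in 100 mM Tris-HCl pH 7.5, 150 mM NaCl, 5 mM MgCl2, 0.05% Triton X-100 reacted with 18:0 Lyso PC (200 μM stock) and test compound 2 h at room temperature. Released choline quantified via choline oxidase/peroxidase resorufin fluorescence (ex 531/em 598 nm, 20 min); inhibition vs no-compound and no-enzyme controls, concentration-response curve.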
For CC(=O)Nc1cc(Cl)ccc1-c1cc(=O)n(CC(=O)NC2(C#N)CC2)cn1 [Compound I-0249], the IC50 was 100 to 1000 nM.
For CSc1nc(-c2ccc(Cl)cc2NC(C)=O)cc(=O)n1CC(=O)NC1(C#N)CC1 [Compound I-0243], the IC50 was 10 to 100 nM.
N#CC1(NC(=O)Cn2c(OCCC(F)(F)F)nc(-c3ccc(Cl)cc3)cc2=O)CC1 [Compound I-0242] was tested, and the IC50 was 100 to 1000 nM.

Same assay, conditions: human autotaxin enzyme, 18:0 Lyso PC substrate, choline assay, room temperature 2 hours; read-out: Inhibitor activity (IC50)
O=C(Cn1c(CCCC(F)(F)F)nc(-c2ccc(C(F)(F)F)cc2)cc1=O)NC1(c2nc(=O)o[nH]2)CC1 [Compound I-0387] gave an IC50 of 10 to 100 nM.
CCCNc1nc(-c2ccc(Cl)cc2NC(C)=O)cc(=O)n1Cc1ccccc1 [Compound I-0202] was tested, and the IC50 was 100 to 1000 nM.
O=C(Cn1c(CCCC(F)(F)F)nc(-c2ccc(C(F)(F)F)cc2)cc1=O)N1CCOC(CO)C1 (centres unmarked) [Compound I-0338] showed an IC50 of 10 to 100 nM.
With COC(=O)Nc1cc(Cl)ccc1-c1cc(=O)n(CC(=O)N(C)C(C)(C)C)c(C)n1 [Compound I-0269] the IC50 was 10 to 100 nM.
COC(=O)Nc1cc(Cl)ccc1-c1cc(=O)n(CC(=O)N(C)C2(C)COC2)c(C)n1 [Compound I-0274] showed an IC50 of 10 to 100 nM.
Work on COC(=O)Nc1cc(Cl)ccc1-c1cc(=O)n(CC(=O)NC2CCS(=O)(=O)C2)c(C)n1 (centres unmarked) [Compound I-0309] yielded an IC50 of 10 to 100 nM.
CC(C)(O)CN1CCN(C(=O)Cn2c(CCCC(F)(F)F)nc(-c3ccc(Cl)cc3)cc2=O)CC1 [Compound I-0148] showed an IC50 of 100 to 1000 nM.
Work on COC(=O)Nc1cc(Cl)ccc1-c1cc(=O)n(CC(=O)NCC2CNC(=O)C2)c(C)n1 (centres unmarked) [Compound I-0438] yielded an IC50 of 10 to 100 nM.
For O=C(NCC(O)CO)c1cccc(Cn2c(CCCC(F)(F)F)nc(-c3ccc(Cl)cc3)cc2=O)c1 (centres unmarked) [Compound I-0173], the IC50 was 100 to 1000 nM.
Cc1nc(-c2ccc(Cl)cc2NC(=O)C(C)(C)C)cc(=O)n1Cc1cccc(C(=O)O)c1 [Compound I-0290] showed an IC50 of less than 10 nM.
CCCCCc1nc(-c2ccc(Cl)cc2)cc(=O)n1CC(=O)N(CCC(=O)O)C1CCCC1 [Compound I-0062] was tested, and the IC50 was 10 to 100 nM.
NC(=S)C1CCN(C(=O)Cn2c(CCCC(F)(F)F)nc(-c3ccc(C(F)(F)F)cc3)cc2=O)CC1 [Compound I-0353] was tested, and the IC50 was 10 to 100 nM.
Molecule COC(=O)Nc1cc(C#N)ccc1-c1cc(=O)n(CC(=O)NC(C)C)c(C)n1 [Compound I-0389] has an IC50 of 10 to 100 nM.
CCCCCc1nc(-c2ccc(Cl)cc2)cc(=O)n1CC(=O)NCCC(N)=O [Compound I-0031] gave an IC50 of 100 to 1000 nM.
Work on NC(=O)C1CCN(C(=O)Cn2c(CCCC(F)(F)F)nc(-c3ccc(C(F)(F)F)cc3)cc2=O)CC1 [Compound I-0342] yielded an IC50 of 10 to 100 nM.
With CCCCCNc1nc(-c2ccc(C(F)(F)F)cc2)cc(=O)n1Cc1cccc(C(=O)NCC(N)=O)c1 [Compound I-0013] the IC50 was 100 to 1000 nM.
Molecule COC(=O)Nc1cc(Cl)ccc1-c1cc(=O)n(CC(=O)NC(C)C)c(C)n1 [Compound I-0390] has an IC50 of 10 to 100 nM.
Molecule NC(=O)C1CCN(C(=O)Cn2c(CCCC(F)(F)F)nc(-c3ccc(Cl)cc3)cc2=O)CC1 [Compound I-0118] has an IC50 of 10 to 100 nM.
Work on CCCCCc1nc(-c2ccc(Cl)cc2)cc(=O)n1CC(=O)N1CCOCC1c1ccccc1 (centres unmarked) [Compound I-0076] yielded an IC50 of 100 to 1000 nM.
CNC(=O)NC1CCN(C(=O)Cn2c(CCCC(F)(F)F)nc(-c3ccc(C(F)(F)F)cc3)cc2=O)CC1 [Compound I-0356] showed an IC50 of less than 10 nM.
In the case of Cc1nc(-c2ccc(C#N)cc2NC(=O)C(C)(C)C)cc(=O)n1CC(=O)O [Compound I-0260], the IC50 is reported as no less than 1000 nM.
CN(C(=O)Cn1c(CCCC(F)(F)F)nc(-c2ccc(C(F)(F)F)cc2)cc1=O)C1(C)COC1 [Compound I-0332] was tested, and the IC50 was 10 to 100 nM.
With CC(C)(C)C(=O)Nc1cc(Cl)ccc1-c1cc(=O)n(CC(=O)Nc2cnccc2O)cn1 [Compound I-0447] the IC50 was 100 to 1000 nM.
With COC(=O)Nc1cc(Cl)ccc1-c1cc(=O)n(CC(=O)N2CCC(O)CC2)c(C)n1 [Compound I-0425] the IC50 was 10 to 100 nM.
N#CCCCn1c(-c2ccc(Cl)cc2)cc(=O)n(CC(=O)NC(Cc2ccccc2)C(=O)O)c1=O (centres unmarked) [Compound I-0115] showed an IC50 of no less than 1000 nM.
CC(C)(C)NC(=O)Cn1cnc(-c2ccc(Cl)cc2NC(=O)C(C)(C)C)cc1=O [Compound I-0407] was tested, and the IC50 was 10 to 100 nM.
In the case of CN(CCO)C(=O)Cn1c(CCCC(F)(F)F)nc(-c2ccc(C(F)(F)F)cc2)cc1=O [Compound I-0305], the IC50 is reported as 10 to 100 nM.
In the case of COC(=O)Nc1cc(Cl)ccc1-c1cc(=O)n(CC(=O)NC2(C(=N)NO)CC2)c(C)n1 [Compound I-0440], the IC50 is reported as 10 to 100 nM.
Work on Cc1nc(-c2ccc(C#N)cc2NC(=O)C2CC2)cc(=O)n1CC(=O)O [Compound I-0258] yielded an IC50 of no less than 1000 nM.
With CC(C)(O)CNC(=O)Cn1c(CCCC(F)(F)F)nc(-c2ccc(C(F)(F)F)cc2)cc1=O [Compound I-0321] the IC50 was 10 to 100 nM.
CCCCCc1nc(-c2ccc(Cl)cc2)cc(=O)n1Cc1ccc(C(=O)O)cc1 [Compound I-0008] was tested, and the IC50 was 100 to 1000 nM.
CCCCCNc1nc(-c2ccc(C(F)(F)F)cc2)cc(=O)n1Cc1cccc(C(=O)NCC(=O)O)c1 [Compound I-0015] was tested, and the IC50 was 10 to 100 nM.
In the case of O=C(Cn1c(CCCC(F)(F)F)nc(-c2ccc(C(F)(F)F)cc2)cc1=O)NC1(c2cccnc2)CC1 [Compound I-0347], the IC50 is reported as 10 to 100 nM.
For O=C(Cn1c(CCCC(F)(F)F)nc(-c2ccc(C(F)(F)F)cc2)cc1=O)N1CCC(N2CCNC2=O)CC1 [Compound I-0362], the IC50 was 10 to 100 nM.
Work on COC(=O)Nc1cc(Cl)ccc1-c1cc(=O)n(CC(=O)NCc2cc(=O)[nH]o2)c(C)n1 [Compound I-0439] yielded an IC50 of less than 10 nM.
COC(=O)Nc1cc(Cl)ccc1-c1cc(=O)n(CC(=O)NC(C)(C)CO)c(C)n1 [Compound I-0412] showed an IC50 of less than 10 nM.
In the case of COCCCc1nc(-c2ccc(Cl)cc2)cc(=O)n1CC(=O)NCC(C)(C)O [Compound I-0230], the IC50 is reported as 100 to 1000 nM.
For CCCCCc1nc(-c2ccc(Cl)cc2)cc(=O)n1CC(=O)NC1COC1 [Compound I-0028], the IC50 was 10 to 100 nM.
With CCCCCc1nc(-c2ccc(Cl)cc2)cc(=O)n1CC(=O)NCCCO [Compound I-0030] the IC50 was 100 to 1000 nM.
CCCCCNc1nc(-c2ccc(C(F)(F)F)cc2)cc(=O)n1Cc1ccc(C(=O)NCC(=O)O)cc1 [Compound I-0018] was tested, and the IC50 was 100 to 1000 nM.
Molecule Cc1nc(-c2ccc(Cl)cc2NC(=O)C2CC2)cc(=O)n1CC(=O)NC1(C(F)(F)F)CC1 [Compound I-0461] has an IC50 of 10 to 100 nM.
Work on COC(=O)Nc1cc(Cl)ccc1-c1cc(=O)n(CC(=O)N(C(C)C)C(C)C)c(C)n1 [Compound I-0276] yielded an IC50 of 10 to 100 nM.
COC(=O)Nc1cc(Cl)ccc1-c1cc(=O)n(CC(=O)NC(C)(C)CF)c(C)n1 [Compound I-0415] gave an IC50 of less than 10 nM.
CCCCCNc1nc(-c2ccc(C(F)(F)F)cc2)cc(=O)n1Cc1ccc(C(=O)NCC(N)=O)cc1 [Compound I-0019] showed an IC50 of no less than 1000 nM.
CC(C)(C)OC(=O)Cn1c(CCC(F)(F)F)nc(-c2ccc(Cl)cc2)cc1=O [Compound I-0216] showed an IC50 of 100 to 1000 nM.
Molecule O=C(O)c1cc(Cn2c(CCCC(F)(F)F)nc(-c3ccc(Cl)cc3)cc2=O)cs1 [Compound I-0292] has an IC50 of 10 to 100 nM.
With CC(C)(C)C(=O)Nc1cc(Cl)ccc1-c1cc(=O)n(Cc2cccc(C(=O)N3CCC(C(N)=O)CC3)c2)cn1 [Compound I-0497] the IC50 was 10 to 100 nM.
For O=C1CCC(CNC(=O)c2cccc(Cn3c(CCCC(F)(F)F)nc(-c4ccc(Cl)cc4)cc3=O)c2)CN1 (centres unmarked) [Compound I-0196], the IC50 was 10 to 100 nM.
Work on COCCCNC(=O)c1cccc(Cn2c(CCCC(F)(F)F)nc(-c3ccc(Cl)cc3)cc2=O)c1 [Compound I-0161] yielded an IC50 of 100 to 1000 nM.
In the case of O=C(c1cccc(Cn2c(CCCC(F)(F)F)nc(-c3ccc(Cl)cc3)cc2=O)c1)N1CCC(CO)CC1 [Compound I-0159], the IC50 is reported as less than 10 nM.
Work on CCS(=O)(=O)N1CCN(C(=O)Cn2c(CCCC(F)(F)F)nc(-c3ccc(C(F)(F)F)cc3)cc2=O)CC1 [Compound I-0366] yielded an IC50 of 100 to 1000 nM.
O=C(O)c1ccc(Cn2c(CCCC(F)(F)F)nc(-c3ccc(Cl)cc3)cc2=O)s1 [Compound I-0293] gave an IC50 of 10 to 100 nM.
CCCCCc1nc(-c2ccc(Cl)cc2)cc(=O)n1CC(=O)NC(Cc1ccccc1)C(=O)O (centres unmarked) [Compound I-0024] showed an IC50 of less than 10 nM.
O=C(O)c1cccc(Cn2c(CCCC(F)(F)F)nc(-c3ccc(Cl)cc3)cc2=O)c1 [Compound I-0112] was tested, and the IC50 was 10 to 100 nM.
With O=C(NCc1ccnc(O)c1)c1cccc(Cn2c(CCCC(F)(F)F)nc(-c3ccc(Cl)cc3)cc2=O)c1 [Compound I-0192] the IC50 was 10 to 100 nM.
With CCCCCc1nc(-c2ccc(Cl)cc2)cc(=O)n1CC(=O)NC(CO)Cc1ccc(F)cc1 (centres unmarked) [Compound I-0075] the IC50 was no less than 1000 nM.
Molecule Cc1nc(-c2ccc(C#N)cc2NC(=O)C(C)(C)C)cc(=O)n1CC(=O)NCC1(CO)COC1 [Compound I-0308] has an IC50 of 10 to 100 nM.
N#CC1(NC(=O)Cn2c(CCCC(F)(F)F)nc(-c3ccc(Cl)cc3F)cc2=O)CC1 [Compound I-0228] was tested, and the IC50 was less than 10 nM.
COC(=O)Nc1cc(Cl)ccc1-c1cc(=O)n(CC(=O)NCC(C)(C)O)c(C)n1 [Compound I-0413] was tested, and the IC50 was 10 to 100 nM.
CCCCCc1nc(-c2ccc(Cl)cc2)cc(=O)n1CC [Compound I-0006] was tested, and the IC50 was no less than 1000 nM.
Work on N#CCCCNc1nc(-c2ccc(C#N)cc2)cc(=O)n1Cc1ccccc1 [Compound I-0105] yielded an IC50 of 100 to 1000 nM.
CC(C)(O)CNC(=O)Cn1c(COCC2CC2)nc(-c2ccc(Cl)cc2)cc1=O [Compound I-0214] was tested, and the IC50 was 100 to 1000 nM.
In the case of O=C(Cn1c(CCCC(F)(F)F)nc(-c2ccc(Cl)cc2)cc1=O)NCC1(CO)CC1 [Compound I-0124], the IC50 is reported as 10 to 100 nM.
Molecule O=C(Cn1c(CCCC(F)(F)F)nc(-c2ccc(Cl)cc2)cc1=O)N1CCC(O)(CO)CC1 [Compound I-0130] has an IC50 of 10 to 100 nM.
For O=C(Cn1c(CCCC(F)(F)F)nc(-c2ccc(Cl)cc2)cc1=O)NC(CO)(CO)CO [Compound I-0135], the IC50 was 10 to 100 nM.
Work on COC(=O)c1cccc(Cn2c(CCCC(F)(F)F)nc(-c3ccc(Cl)cc3)cc2=O)n1 [Compound I-0306] yielded an IC50 of 10 to 100 nM.
With CN(C)C(=O)c1cccc(Cn2c(CCCC(F)(F)F)nc(-c3ccc(Cl)cc3)cc2=O)c1 [Compound I-0181] the IC50 was 10 to 100 nM.
For O=C(NCc1ccc(O)nc1)c1cccc(Cn2c(CCCC(F)(F)F)nc(-c3ccc(Cl)cc3)cc2=O)c1 [Compound I-0176], the IC50 was 100 to 1000 nM.
